Measured values reported in PubChem BioAssay (NCI).
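Results reflect a 48-hour exposure of cells in 96-well plates to compound at five concentrations. GI50 is the concentration that inhibits growth by half. TGI: concentration producing complete growth inhibition.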

Tests used:
Assay in all cases: NCI-60 cell line screen, 48 h
[1] = test system: OVCAR-5 ovarian
[2] = test system: ACHN renal
[3] = test system: MALME-3M melanoma
[4] = test system: UACC-257 melanoma
[5] = test system: A549 NSCLC
[6] = test system: HCT-116 colon
[7] = test system: NCI-H460 lung
[8] = test system: NCI-H522 lung
[9] = test system: DU-145 prostate
[10] = test system: BT-549 breast

Structure (SMILES)	TGI [1]	TGI [2]	TGI [3]	TGI [4]	TGI [5]	TGI [6]	TGI [7]	TGI [8]	GI50 [9]	TGI [9]	GI50 [3]	GI50 [5]	GI50 [6]	GI50 [7]	GI50 [1]	GI50 [2]	GI50 [10]	TGI [10]	GI50 [4]	GI50 [8]
CC(C)N(C(=O)C12C3C4C5(C#N)C3C1(C#N)C5C42C#N)C(C)C (stereo not given)	> 100 µM	> 100 µM	> 100 µM	> 100 µM	> 100 µM	> 100 µM	> 100 µM	> 100 µM												
O=C(C(=O)c1cc2ccccc2[nH]1)c1cc2ccccc2[nH]1	> 347 µM	> 347 µM	> 347 µM	> 347 µM	> 347 µM	> 347 µM	> 347 µM	114 µM												
C=C(CCCCC)CN1CCCC1C(C)=O (stereo not given)	> 96.1 µM	> 85.4 µM	> 100 µM	> 73.3 µM	> 100 µM	> 80.9 µM	> 85.3 µM	34.7 µM												
CCOC(=O)c1cc(C(=O)c2ccc(OC)cc2)n2ccc(/C=C/c3cc[n+](CC(=O)c4ccc(OC)cc4)cc3)cc12			3.66 µM		> 100 µM	3.36 µM	3.56 µM		2050 nM	5.16 µM	1.67 µM	3.96 µM	1550 nM	1560 nM						
O=C1[C@H]2ON(c3ccccc3)C(c3ccc([N+](=O)[O-])cc3)[C@H]2C(=O)N1c1ccc(Cc2ccc(N3C(=O)[C@@H]4ON(c5ccccc5)C(c5ccc([N+](=O)[O-])cc5)[C@@H]4C3=O)cc2)cc1 (stereo not given in full)	> 100 µM	> 100 µM	> 100 µM	> 100 µM	> 100 µM	> 100 µM	> 100 µM	> 100 µM												
Cc1cnc2ccc(C)c([N+](=O)[O-])c2c1NCCCN(C)C	> 100 µM	> 100 µM	> 100 µM	> 100 µM	> 100 µM	> 100 µM	> 100 µM	> 100 µM												
NNC(=O)C(=O)N/N=C(\CCCC(=O)Nc1ccc(Cl)cc1)CC(=O)c1ccc(F)cc1	> 100 µM	> 100 µM	> 100 µM	> 100 µM	> 100 µM	> 100 µM	> 100 µM													
C/C(=N\N=C(N)N)C(CN1CCCCC1)C(c1ccccc1)c1c(O)c2ccccc2oc1=O (stereo not given)	> 100 µM	> 100 µM	> 100 µM	> 100 µM	> 100 µM	> 100 µM		> 100 µM												
COc1ccc(Cc2c3cc(O)c(=O)cc-3ccn2C)cc1	> 100 µM	> 100 µM	> 88.1 µM	> 89.8 µM	> 100 µM	> 100 µM	> 100 µM	> 100 µM												
OC(CNc1ccnc2cc(Cl)ccc12)CNc1ccnc2cc(Cl)ccc12	3.42 µM	28.2 µM		3.49 µM	21.2 µM	3.09 µM	3.52 µM		1960 nM	3.76 µM		4.49 µM	1720 nM	1830 nM	1730 nM	5090 nM	1670 nM	3.13 µM	1870 nM	
CSc1ccc2c(cc1=O)[C@@H](NC(=O)c1cccc([N+](=O)[O-])c1)CCc1cc(O)c(O)c(O)c1-2	> 100 µM	> 100 µM	> 100 µM	> 100 µM	> 100 µM	35.9 µM	> 100 µM	68.2 µM												
C[C@@H](Oc1cc(-n2cnc3ccc(OC4CCN(C)CC4)cc32)sc1C(N)=O)c1ccccc1Cl	5.76 µM	9.19 µM	7.89 µM	5.4 µM	3 µM	3.15 µM	3.19 µM	5.03 µM			3.89 µM	0.0183 µM	15.6 nM	12.6 nM	24 nM	212 nM	168 nM	5.28 µM	24.9 nM	11.7 nM
CCOC(OC(C)=O)[C@@H]1C=C[C@H](C)N(c2ccc([N+](=O)[O-])cc2)O1 (stereo not given in full)	10.4 µM	13 µM	20.1 µM	26.9 µM	43.4 µM	2.61 µM	34.2 µM	8.97 µM												
C=CCNC(=O)NCCCCC(NC(C)=O)C(=O)NCc1ccccc1 (stereo not given)	> 100 µM	> 100 µM	> 100 µM	> 100 µM	> 100 µM		> 100 µM	> 100 µM												
C=C(C)[C@H]1CC[C@@]2(C)C(C1)[C@H](C)CC[C@@H]2O (stereo not given in full)	> 100 µM	> 100 µM	> 100 µM	> 100 µM	> 100 µM	> 100 µM	> 100 µM	> 100 µM												
CC1=N/C(=C/c2ccc3c(c2)OCO3)C(=O)O1	> 100 µM	> 100 µM	> 100 µM	> 100 µM	> 100 µM	> 100 µM		> 100 µM												

Structure (SMILES)	TGI [1]	TGI [2]	TGI [3]	TGI [4]	TGI [5]	TGI [6]	TGI [7]	TGI [8]	GI50 [9]	TGI [9]	GI50 [3]	GI50 [5]	GI50 [6]	GI50 [7]	GI50 [1]	GI50 [2]	GI50 [10]	TGI [10]	GI50 [4]	GI50 [8]
Cc1ccc(C)c(N2C(=O)C(=O)C(c3nc4ccccc4s3)/C(=N/N)C2=O)c1 (stereo not given)	> 100 µM	> 100 µM	> 100 µM	> 74.5 µM	> 100 µM	> 100 µM	> 100 µM	> 100 µM												
NC(=O)NNC(=O)CCn1[nH]c(=O)c(Cl)c(Cl)c1=O	> 100 µM	> 100 µM	> 100 µM	> 100 µM	> 100 µM	> 100 µM	> 100 µM	> 100 µM												
CC1(C)OC2C(CCP(=O)(O)O)OC(c3nc(C(N)=O)cs3)C2O1 (stereo not given)	> 100 µM	> 100 µM	> 100 µM	> 100 µM	> 100 µM	> 100 µM	> 100 µM	> 100 µM												
N#C/C(=C\c1cc(O)cc(O)c1)C(N)=O	> 100 µM	> 100 µM	> 100 µM	> 100 µM	> 100 µM	> 100 µM	> 100 µM	66.2 µM												
O=C1C=C(Nc2ccc(Cl)cc2Cl)c2ccccc2C1=O	> 100 µM	> 100 µM	71 µM	> 100 µM	> 100 µM	> 100 µM	> 100 µM	> 100 µM												
C=CSCCC(N)C(=O)O (stereo not given)	> 100 µM	> 100 µM	> 100 µM	> 100 µM	> 100 µM	> 100 µM	> 100 µM	> 100 µM												
COc1ccc(C(=O)C(CN(C)C)CN(C)C)cc1	30.8 µM	2.93 µM		8.48 µM	43.4 µM	2.63 µM	40.1 µM		3210 nM	9.93 µM		19.1 µM	1300 nM	19200 nM	12600 nM	1560 nM	15300 nM	28.8 µM	2140 nM	
O=c1c2c(nc3n1CCS3)[nH]c1cc([N+](=O)[O-])ccc12	> 100 µM	> 100 µM	> 100 µM	> 100 µM	> 100 µM	> 100 µM	> 100 µM	> 100 µM	> 100000 nM	> 100 µM	> 100 µM	> 100 µM	> 100000 nM	> 100000 nM	> 100000 nM	> 100000 nM			> 100000 nM	> 100000 nM
O=C(/C=C\c1ccccc1O)c1ccc(O)cc1O	> 100 µM	> 100 µM	> 100 µM	> 100 µM	> 100 µM	> 100 µM	> 100 µM	> 100 µM												
C=C[C@@H](C)[C@]1(C(=O)OC)CCCC12OCCO2	> 100 µM	> 100 µM	> 100 µM	> 100 µM	> 100 µM	> 100 µM	> 100 µM	> 100 µM												
CC(C)(C)C1=CC(=C(P(=O)(O)O)P(=O)(O)O)C=C(C(C)(C)C)C1=O	> 50 µM	> 50 µM	> 50 µM	> 50 µM	> 50 µM	> 50 µM	> 50 µM	> 50 µM												
CC(=O)Nc1ccc(/C=C/C(=O)c2sc(-c3cccnc3)nc2C)cc1	> 100 µM	> 100 µM	> 100 µM	> 100 µM	> 100 µM		> 100 µM	> 100 µM												
CN(CCS(=O)(=O)N1C(=O)C2CCCN2C(=O)[C@@H]1Cc1ccccc1)C(=O)OCc1ccccc1 (stereo not given in full)	> 100 µM	73.4 µM	> 100 µM	> 100 µM	> 100 µM	> 100 µM	> 100 µM	> 100 µM												
O=C(CCC(=O)Nc1ccc(Cl)c(Cl)c1)Cc1nc2ccccc2o1	> 100 µM	> 100 µM	> 100 µM	> 100 µM	> 100 µM	> 100 µM	> 100 µM	> 100 µM												
OCC1C(OCc2ccccc2)C(OCc2ccccc2)C(OCc2ccccc2)CN1Cc1ccccc1 (stereo not given)	> 100 µM	17.9 µM	91.5 µM	81 µM	> 100 µM	81.5 µM	48.1 µM	> 100 µM		> 100 µM										
NCCSSCc1ccccc1CSSCCN	> 100 µM	> 100 µM	> 100 µM	> 100 µM	> 100 µM	> 100 µM	> 100 µM	27.8 µM												
